Experimental data as given in ChEMBL document CHEMBL1122732, “Vitamin K dependent carboxylation: synthesis and biological properties of tetrazolyl analogues of pentapeptidic substrates” (J Med Chem, 1984).

How the values were obtained:
[1] = (§1) Compound were evaluated for its binding affinity against vitamin K dependent carboxylation
[2] = as §1; remark: listed apart in the source

Row | Compound | Ki [1] [mM] | Km [2] [µM]
1 | CC(C)C[C@H](NC(=O)[C@@H](N)Cc1ccccc1)C(=O)N[C@@H](CCc1nn[nH]n1)C(=O)N[C@@H](CCc1nn[nH]n1)C(=O)N[C@H](C(=O)O)C(C)C | 3.1 | –
2 | H-FLEEV-OH | 20 | –
3 | CC(C)C[C@H](NC(=O)[C@@H](N)Cc1ccccc1)C(=O)N[C@@H](CCC1N=NN=N1)C(=O)N[C@@H](CCC1N=NN=N1)C(=O)N[C@H](C(=O)O)C(C)C | 3 | 3000
